We go through three molecules from patent US11603543B2, “Fusogenic lipid nanoparticles for target cell-specific production of a therapeutic protein” (Oisin Biotechnologies, Inc., priority 2018, dated 2023).

Data set [1] has as its system Human prostate cancer PC-3 cells. In words: Luminescence assay of iCasp9 expression in PC-3 cells. The settings on record: PC-3 cells treated with Fusogenix lipid nanoparticles carrying pVax-p53-iCasp9-luc plasmid. The data set is classed as cell-based. As to the method:
FIG. 42 is a bar graph of data from a luminescence assay of iCasp 9 and Casp 9 protein levels obtained with the p53-expressing cells presented in FIG. 36 (pVax-p53) and control cells (pcDNA3-GFP). Human prostate cancer PC-3 cells were treated with Fusogenix lipid nanoparticles carrying the pVax-p53-iCasp9-luc (luciferin) plasmid (in the presence and absence of the homodimerizer AP20187) and assessed for iCasp9 expression.
Human prostate cancer PC-3 cells were treated with Fusogenix lipid nanoparticles carrying the pVax-p53-iCasp9-luc (luciferin) plasmid (in the presence and absence of the homodimerizer AP20187) and assessed for iCasp9 expression.

Data set [2] shares this test system. In words: Western blot of iCasp9 and Casp9 protein levels in PC-3 cells. The data set is classed as cell-based. The settings on record: PC-3 cells treated with Fusogenix lipid nanoparticles carrying pVax-p53-iCasp9-luc plasmid. As to the method: FIG. 36 is a Western blot of iCasp 9 and Casp 9 protein levels obtained with p53-expressing cells (pVax-p53) and control cells (pcDNA3-GFP). Human prostate cancer PC-3 cells were treated with Fusogenix lipid nanoparticles carrying the pVax-p53-iCasp9-luc (luciferin) plasmid (in the presence and absence of the homodimerizer AP201870) and assessed for iCasp9 expression.
Human prostate cancer PC-3 cells were treated with Fusogenix lipid nanoparticles carrying the pVax-p53-iCasp9-luc (luciferin) plasmid (in the presence and absence of the homodimerizer AP201870) and assessed for iCasp9 expression and subjected to Western blot analysis of iCasp 9 and Casp 9 protein levels obtained with p53-expressing cells (pVax-p53) and control cells (pcDNA3-GFP). FIG. 36.

The conditions of data set [3]: humans; cited from earlier work.
Data set [4] deals with Human prostate cancer (LNCaP, DU145, PC-3) or normal epithelial (RWPE) cells. In words: Western blot and luminescence assays of iCasp9 expression in prostate cancer and normal epithelial cells. The data set is classed as cell-based. The conditions noted are these: DU145, PC-3, RWPE cells treated with Fusogenix lipid nanoparticles carrying pVax-p53-iCasp9-luc plasmid. In general terms: In western blotting, separated proteins are transferred to a membrane and probed.

Data set [5] in a line: Anti-p14 and anti-LNP antibody response in immune competent mice. The data set is classed as in vivo. The settings on record: with adjuvant: 3 injections of 50 μg p14 with Freund's adjuvant at 10 day intervals; sera after 30 days. As for the experimental part:
Mice were injected three (3) times at 10 day intervals with purified p14 mixed with Freund's adjuvant. A first dose contained CFA (complete Freund's adjuvant) while second and third doses contained IFA (incomplete Freund's adjuvant). Each injection was with 50 μg of p14. Mice were sacrificed after 30 days and sera was analyzed for anti-p14 antibodies. p14 lipid nanoparticles were also tested in two (2) mice via intravenous injection of 400 μg of p53-iCasp9 Fusogenix lipid nanoparticles containing 240 μg of p14. Mice were sacrificed after 30 days of injection and serum was analyzed for anti-p14 antibodies. A positive control included purified antibodies spiked in serum at a high dose of 250 ng/ml and a low dose of 50 ng/ml.

`CC[C@H](C(=O)N1CCCC[C@H]1C(=O)O[C@H](CCc1ccc(OC)c(OC)c1)c1cccc(OCC(=O)NCCNC(=O)COc2cccc([C@@H](CCc3ccc(OC)c(OC)c3)OC(=O)[C@@H]3CCCCN3C(=O)[C@@H](CC)c3cc(OC)c(OC)c(OC)c3)c2)c1)c1cc(OC)c(OC)c(OC)c1` [AP1903]: the “expression of iCasp9 and luciferase after addition of CID” value in data set [1] is “abolishes the expression of iCasp9 and luciferase”; in data set [2], “abolishes the expression of iCasp9 and luciferase”; in data set [4], “abolishes the expression of iCasp9 and luciferase”. Besides, the intravenous safety entry in data set [3] was “confirmed”.

Turning to `CC[C@H](C(=O)N1CCCC[C@H]1C(=O)O[C@H](CCc1ccc(OC)c(OC)c1)c1cccc(OCC(=O)NCC(CNC(=O)COc2cccc([C@@H](CCc3ccc(OC)c(OC)c3)OC(=O)[C@@H]3CCCCN3C(=O)[C@@H](CC)c3cc(OC)c(OC)c(OC)c3)c2)CN(C)C)c1)c1cc(OC)c(OC)c(OC)c1` [AP20187], the “expression of iCasp9 and luciferase after addition of CID” value in data set [1] was “abolishes the expression of iCasp9 and luciferase”; in data set [2], “abolishes the expression of iCasp9 and luciferase”; in data set [4] it was “abolishes the expression of iCasp9 and luciferase”.

B1: p14: fusogenic p14 FAST fusion protein from reptilian reovirus, SEQ ID NO: 16 (protein, listed as Homo sapiens)
chain: MGSGPSNFVNHAPGEAIVTGLEKGADKVAGTISHTIWEVIAGLVALLTFLAFGFWLFKYLQKRRERRRQLTEFQKRYLRNSYRLSEIQRPISQHEYEDPYEPPSRRKPPPPPYSTYVNIDNVSAI
Consider B1, for which the anti-p14 antibody response result in data set [5] is given as “virtually no antibody response”.
